The record followed here is US20170172953A1, “SELF-ASSEMBLING DRUG DELIVERY VEHICLES WITH IONICALLY CROSS-LINKED DRUGS” (WILLIAM MARSH RICE UNIVERSITY, priority 2014, published 2017).

Data set [1] in a line: Parallel plate rheometry of crosslinked SLac peptide hydrogels. Particulars: drug as crosslinker of 1 w % SLac hydrogel, pH 7.4. Format: physicochemical. The procedure: Peptide solutions were made by dissolving lyophilized SLac in 298 mM sucrose-water at a concentration of 2 w %, pH 7.4. Hydrogels were constructed by addition of Hank's balanced salt solution (HBSS) at a 1:1 ratio. Multivalent drugs were added at similar concentrations, approximating physiological doses, to SLac solutions with final concentrations of: SLac—0.4 mM (1 w %); concentration of positive lysine charges—0.8 mM; suramin—3.8 mM (0.5 w %) or 0.38 mM (0.05 w %); trypan blue—3.2 mM (0.2 w %); heparin ˜2.78 mM (5 w %); clodronate disodium—3.4 mM; phosphate buffer—38 mM and 5 mM; and 0.9% saline. Negatively charged polyvalent ions in buffer solution facilitated intermolecular ionic interactions with lysine residues, crosslinking the hydrogel. Rheological behavior of peptide hydrogels was determined using an 8 mm parallel plate geometry at a gap of 250 μm. 50 μL of hydrogel was constructed and, within 30 min, placed on stainless steel plates of a rheometer. A frequency sweep (0.1-100 Hz, at constant 1% strain), strain sweep (0-1000%/strain, at 1 Hz) and shear recovery (1% strain for 30 min, 100% strain for 60 s, 1% strain for 30 min) were performed. We ensured the phase angle δ≦90° to ensure no slipping.

Data set [2] can be described thus: Suramin drug loading and release from MDP hydrogel into HBSS. In kind it is physicochemical. The procedure:
Suramin was dissolved in 0.9% saline and loaded into MDP hydrogel (100 μL of SLac dissolved in 298 mM sucrose+100 μL of drug/saline) in microcentrifuge tubes. 1 mL of release media (HBSS) was added to gels placed in a humidified 5% CO2 cell culture incubator at 37° C. 200 μL aliquots of release media were assayed, with replenishment, daily for 30 days. To determine short term release kinetics, in a separate setup, aliquots were assayed at 1, 2, 4, 8, 12, 24, 48 and 72 hr. Concentration of drug was determined using UV spectrophotometry at 313 nm, n=5. Mass release data were plotted as a function of cumulative release of drug in Sigmaplot. Drug release was modeled using the Korsmeyer-Peppas equation.

“Also recorded” adds a separate entry of the source.

Take `Cc1ccc(C(=O)Nc2ccc(S(=O)(=O)O)c3cc(S(=O)(=O)O)cc(S(=O)(=O)O)c23)cc1NC(=O)c1cccc(NC(=O)Nc2cccc(C(=O)Nc3cc(C(=O)Nc4ccc(S(=O)(=O)O)c5cc(S(=O)(=O)O)cc(S(=O)(=O)O)c45)ccc3C)c2)c1` [suramin]: the “mechanical strength, storage modulus G′ / loss modulus G″” value in data set [1] is “order of magnitude increase in mechanical strength with increase in concentration; also recorded: an order of magnitude higher G′/G″”. Further, the results for the mechanism of release entry in data set [2] (1 mg/mL loaded gels) and in data set [2] (10 mg/mL loaded gels) were “non-Fickian diffusion/Case II transport dependent” and “diffusion dependent”, respectively. Also, the “release exponent (t) of Korsmeyer-Peppas model” value in data set [2] (1 mg/mL loaded gels) is reported as “≈ 1.0”; in data set [2] (10 mg/mL loaded gels), “≈ 0.5”. Further, the “Maximum cumulative suramin concentration” value is 0.6 mg/mL in data set [2] (high loading) and 0.04 mg/mL in data set [2] (low loading). Besides, in data set [2] (over a 20 day period, from SLac-based scaffolds), the drug release result is “approximately 50%”. In addition, the “retention of drug ionically cross-linked” value in data set [2] (over a period of 30 days) is “up to 40%”. In addition, the “drug releasing from hydrogel scaffolds” value in data set [2] (over the first 30 days, depending on loading concentration) is on record as 40-60%.
